# Laboratory results taken from US12503454B2, “LPA receptor antagonists and uses thereof” (Gilead Sciences, Inc., priority 2021, dated 2025).
# Target: human LPAR1 (Homo sapiens, UniProt Q92633)
# Assay: LPAR1 intracellular calcium mobilization assay (antagonist mode, FLIPR)
# Type: cell-based
# Conditions: CHO-K1 EDG2 cells expressing human LPAR1; test compound 0.5 nM to 10 μM pre-incubated 60 minutes at 37° C., then LPA 18:2 at EC80 concentration (100 nM)
# Method: In vitro LPAR1 activity was measured in an intracellular calcium mobilization assay. CHO-K1 EDG2 cells (DiscoverX cat #93-0644C2) expressing human LPAR1 (NM_001401.3) were seeded in a total volume of 25 μL of Dulbecco's Modification of Eagle's Medium (DMEM) with 10% Fetal Bovine Serum, 1× PenStrepGlutamine, 300 μg/ml Hygromycin, and 800 μg/ml G418 into 384-well tissue culture plate (Grenier #781091) at 15,000 cells/well and incubated at 37° C. overnight. Prior to testing, 25 μL Calcium Loading Dye Component A (FLIPR Calcium 6 Assay Kit Molecular Device # R8190) and 2.5 mM Probenecid (Invitrogen # P36400, prepared fresh) in Hank's Balanced Salt Solution (Corning #21-023-CV), 20 mM HEPES (Corning #25-060-CI), 0.1% Bovine Serum Albumin (Sigma-Aldrich # A7906-500G) was add to the cells for 60 minutes at 37° C.
# Agonist dose curves of LPA 18:2 (Avanti Polar Lipids cat #857138, 0.5 nM to 10 μM) were recorded to determine the LPA 18:2 EC80 for subsequent antagonist assays. For agonist dose curves, cells were removed from the incubator 2 hours after dye loading and transferred to the FLIPR Tetra instrument (Molecular Devices, San Jose, CA). Calcium mobilization was monitored for 5 min and 10 μL 6×LPA in HBSS/20 mM Hepes/0.1% bovine serum albumin (BSA) was added to the cells 5 seconds into the assay.
# To determine the LPAR1 antagonist activity of test compounds, cells were pre-incubated with test compound at a dose range of 0.5 nM to 10 μM, followed by LPA at EC80 concentration (100 nM). After dye loading, cells were removed from the incubator and 0.3 μL of 200× antagonist was added. Cells were incubated for 60 minutes at 37° C. Antagonist activity was measured on a FLIPR Tetra. Calcium mobilization was monitored for 3.5 minutes and 10 μL 6×EC80 LPA in HBSS, 20 mM HEPES, and 0.1% BSA was added to the cells 5 seconds into the assay. Signal amplitude (Maximum minus minimum) values were plotted against log10 of antagonist concentration using Dose Response Tool (Gilead Sciences Inc.) to determine […].
# To assess the antagonistic potential of exemplified compounds […] were determined for Compounds 1 to 66 in the LPAR1 calcium mobilization assay. The compound numbers correspond to the compound numbers in Examples 1 to 18. N/A=not available.
# human LPAR1, sequence (Q92633 whole entry): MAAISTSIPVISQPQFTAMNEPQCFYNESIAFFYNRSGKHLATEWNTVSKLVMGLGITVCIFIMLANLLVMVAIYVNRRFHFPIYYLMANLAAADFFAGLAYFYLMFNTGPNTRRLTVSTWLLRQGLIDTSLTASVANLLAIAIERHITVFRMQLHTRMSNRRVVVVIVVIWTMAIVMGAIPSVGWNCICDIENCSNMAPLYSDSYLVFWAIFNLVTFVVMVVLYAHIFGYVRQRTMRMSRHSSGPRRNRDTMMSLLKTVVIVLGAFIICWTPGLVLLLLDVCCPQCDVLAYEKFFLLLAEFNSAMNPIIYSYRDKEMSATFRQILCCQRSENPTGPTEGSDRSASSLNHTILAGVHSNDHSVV
row,EC50,Structure (SMILES)
1,364 nM,"C[C@@H](OC(=O)Nc1c(-c2ccc(C(=O)Nc3ccc(C(F)(F)F)nc3)cn2)nnn1C)c1cc(F)cnc1F [Compound 25, (R)-1-(2,5-difluoro-pyridin-3-yl)ethyl (1-methyl-4-(5-((6-(trifluoromethyl)-pyridin-3-yl)-carbamoyl)pyridin-2-yl)-1H-1,2,3-triazol-5-yl)-carbamate]"
2,< 4.6 nM,C[C@@H](OC(=O)Nc1c(-c2ccc(C(=O)NC34CC(c5ccccc5)(C3)C4)cn2)nnn1C)c1cc(F)cnc1F [Compound 26]
3,42.8 nM,"C[C@@H](OC(=O)Nc1c(-c2ccc(C(=O)Nc3ccnc(F)c3)cn2)nnn1C)c1cc(F)cnc1F [Compound 27, (R)-1-(2,5-difluoro-pyridin-3-yl)ethyl (4-(5-((2-fluoro-pyridin-4-yl)-carbamoyl)pyridin-2-yl)-1-methyl-1H-1,2,3-triazol-5-yl)-carbamate]"
4,427 nM,"C[C@@H](OC(=O)Nc1c(-c2ccc(C(=O)Nc3ccc(C4CC4)nc3)cn2)nnn1C)c1cc(F)cnc1F [Compound 28, (R)-1-(2,5-difluoro-pyridin-3-yl)ethyl (4-(5-((6-cyclo-propylpyridin-3-yl)carbamoyl)-pyridin-2-yl)-1-methyl-1H-1,2,3-triazol-5-yl)-carbamate]"
5,3420 nM,"C[C@@H](OC(=O)Nc1c(-c2ccc(C(=O)NC34CC(S(C)(=O)=O)(C3)C4)cn2)nnn1C)c1cc(F)cnc1F [Compound 29, (R)-1-(2,5-difluoro-pyridin-3-yl)ethyl (1-methyl-4-(5-((3-(methylsulfon-yl)bicyclo[1.1.1]-pentan-1-yl)carbam-oyl)pyridin-2-yl)-1H-1,2,3-triazol-5-yl)carbamate]"
6,93 nM,"C[C@@H](OC(=O)Nc1c(-c2ccc(C(=O)Nc3cccc(C(F)(F)F)c3)cn2)nnn1C)c1cc(F)cnc1F [Compound 30, (R)-1-(2,5-difluoro-pyridin-3-yl)ethyl (1-methyl-4-(5-((3-(trifluoromethyl)-phenyl)carbam-oyl)pyridin-2-yl)-1H-1,2,3-triazol-5-yl)carbamate]"
7,14.9 nM,"C[C@@H](OC(=O)Nc1c(-c2ccc(C(=O)Nc3ccnc(C(F)F)c3)cn2)nnn1C)c1cc(F)cnc1F [Compound 31, (R)-1-(2,5-difluoro-pyridin-3-yl)ethyl (4-(5-((2-(difluoro-methyl)pyridin-4-yl)carbamoyl)-pyridin-2-yl)-1-methyl-1H-1,2,3-triazol-5-yl)-carbamate]"
8,55.9 nM,"COc1cc(NC(=O)c2ccc(-c3nnn(C)c3NC(=O)O[C@H](C)c3cc(F)cnc3F)nc2)ccn1 [Compound 32, (R)-1-(2,5-difluoro-pyridin-3-yl)ethyl (4-(5-((2-methoxy-pyridin-4-yl)-carbamoyl)pyridin-2-yl)-1-methyl-1H-1,2,3-triazol-5-yl)-carbamate]"
9,273 nM,"C[C@@H](OC(=O)Nc1c(-c2ccc(C(=O)Nc3ccnc(OC(F)F)c3)cn2)nnn1C)c1cc(F)cnc1F [Compound 33, (R)-1-(2,5-difluoro-pyridin-3-yl)ethyl (4-(5-((2-(difluoro-methoxy)pyridin-4-yl)carbamoyl)-pyridin-2-yl)-1-methyl-1H-1,2,3-triazol-5-yl)-carbamate]"
10,47.5 nM,"C[C@@H](OC(=O)Nc1c(-c2ccc(C(=O)Nc3ccc(C#N)c(C(F)(F)F)c3)cn2)nnn1C)c1cc(F)cnc1F [Compound 34, (R)-1-(2,5-difluoro-pyridin-3-yl)ethyl (4-(5-((4-cyano-3-(trifluoromethyl)-phenyl)carbamoyl)-pyridin-2-yl)-1-methyl-1H-1,2,3-triazol-5-yl)-carbamate]"
11,140 nM,"C[C@@H](OC(=O)Nc1c(-c2ccc(C(=O)Nc3ccnc(Cl)c3F)cn2)nnn1C)c1cc(F)cnc1F [Compound 35, (R)-1-(2,5-difluoro-pyridin-3-yl)ethyl (4-(5-((2-chloro-3-fluoropyridin-4-yl)-carbamoyl)-pyridin-2-yl)-1-methyl-1H-1,2,3-triazol-5-yl)-carbamate]"
